Patent publication US20210369691A1, “METHODS AND COMPOSITIONS FOR IMPROVING BONE MARROW HEMATOPOIETIC FUNCTIONS” (Sun Yat-Sen University, priority 2018, published 2021)

What was measured:
[1] = Survival after repeated high-dose 5FU chemotherapy; type: in vivo, mice; conditions: 5FU 150 mg/kg every 7 days, two times; ABC294640 10 mg/kg every other day; vs control group; FIG. 9
Description: Preparation of SphK2 inhibitors was as described in Example 4. […] 8-week-old C57 mice purchased from Laboratory Animal Center, Sun Yat-sen University were selected and divided evenly into two groups. The mice were intraperitoneally injected with 5FU at a dose of 150 mg/kg, once every 7 days for two times in total. The inhibitor ABC294640 was injected starting from the day after 5FU injection, then injected once every other day, at a dose of 10 mg/kg, until the end of the experiment. Comparison of overall survival rates was performed using the Mantel_Cox log-rank test and differences were considered statistically significant when P<0.05.

platelets = assay: Platelet recovery after bone marrow transplantation; type: in vivo, mice; conditions: 7-35 days after bone marrow transplantation; ABC294640 10 mg/kg every other day; vs solvent control
Description: Twenty-five 8-week-old C57 mice (purchased from Laboratory Animal Center, Sun Yat-sen University) were selected and kept in a specific pathogen free (SPF) environment. 5 mice were randomly selected and sacrificed by cervical dislocation. Femurs and tibias were taken and the bone marrow was obtained from the bone marrow cavity with an 1 ml syringe. Bone marrow was dispersed to form a single cell suspension and lysed with red blood cell lysis buffer for 2 min to remove red blood cells, followed by filtering through a 70 μm filter screen to obtain a single cell suspension. The other 20 mice were treated with X-ray radiation at a dose of 900 cGy, and were injected with 400,000 of the prepared bone marrow single cell suspension via tail vein, respectively. Then, the recipient mice were divided evenly into 2 groups, and mice of the ABC294640 treatment group were subjected to intraperitoneal injection of ABC294640 every other day. Mice in the control group was injected with a solvent solution control (1:1 of physiological saline: PEG400) solution. ABC294640 was purchased from Selleck and dissolved in dimethyl sulfoxide (DMSO), and diluted with a mixture solution of polyethylene glycol 400 (PEG400) and physiological saline (1:1) to be administered at a dose of 10 mg/kg.
Preparation of SphK2 inhibitors was as described in Example 10. […]

O=C(NCc1ccncc1)C12CC3CC(C1)CC(c1ccc(Cl)cc1)(C3)C2 [ABC294640, 3-(4-chloro-phenyl)-adamantane-1-carboxylic acid (pyridin-4-ylmethyl)-amide]
survival period [1]: significantly (***P<0.001) prolonged
number of platelets in the peripheral blood (platelets): significantly (*P<0.05, and ***P<0.001) increased
